# Assay results reported in patent US20240383908A1, “SYNTHESIS AND APPLICATION OF PHOSPHATASE DEGRADER” (HINOVA PHARMACEUTICALS INC., priority 2021, published 2024).
# Structures can show the parent of a compound that is named as a salt.
# Molecular target: T1, SHP2 protein (Homo sapiens, UniProt Q06124)
# T1 sequence (Q06124 1-593): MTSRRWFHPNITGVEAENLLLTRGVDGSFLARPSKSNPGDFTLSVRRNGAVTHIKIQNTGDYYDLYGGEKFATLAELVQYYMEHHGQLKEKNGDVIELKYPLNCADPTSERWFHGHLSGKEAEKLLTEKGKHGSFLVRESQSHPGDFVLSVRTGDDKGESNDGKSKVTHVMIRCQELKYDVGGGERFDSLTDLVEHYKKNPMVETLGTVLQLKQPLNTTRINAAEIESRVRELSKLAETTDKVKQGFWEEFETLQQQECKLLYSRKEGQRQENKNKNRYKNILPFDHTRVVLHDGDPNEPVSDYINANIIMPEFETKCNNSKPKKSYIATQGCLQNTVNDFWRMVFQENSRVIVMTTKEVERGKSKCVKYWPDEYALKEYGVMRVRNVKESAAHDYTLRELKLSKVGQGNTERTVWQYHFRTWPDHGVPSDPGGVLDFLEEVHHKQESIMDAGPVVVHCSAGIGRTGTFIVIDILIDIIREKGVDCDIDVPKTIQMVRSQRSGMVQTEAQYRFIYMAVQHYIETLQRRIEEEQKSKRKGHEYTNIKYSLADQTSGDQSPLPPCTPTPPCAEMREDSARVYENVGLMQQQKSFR
# Assay: Degradation activity on SHP2 protein in MIA Paca-2 cells (Western blot, DC50)
# Format: cell-based
# Parameters: endogenous in cells; host or cells: MIA Paca-2 cells
# Conditions: read-out: Degradation activity for differenct cell lines MIA Paca-2 (DC50)
# Procedure, shortened: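 DC50 is the concentration degrading 50% of SHP2 relative to DMSO control. It was derived by fitting Western blot band densitometry (anti-SHP2, GAPDH reference) from cells exposed 24 h to 0.1–100 nM compound in 0.1% DMSO.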
row,SMILES,DC50 [µM]
1,CC1(N)CCN(c2cnc(Sc3cccc(NC(=O)c4ccc(-c5ccc(N6CCC7(CC6)CC(C(=O)NCc6ccc8c(c6)CN(C6CCC(=O)NC6=O)C8=O)C7)cc5)cc4)c3)cn2)CC1 (centres unmarked) [Compound 415],> 1
2,CC1(N)CCN(c2cnc(Sc3cccc(NC(=O)c4ccc(C5=CCC(N6CC=C(c7ccnc(C(=O)NCc8ccc9c(c8)CN(C8CCC(=O)NC8=O)C9=O)c7)C6)CC5)c(F)c4)c3)cn2)CC1 (centres unmarked) [Compound 416],> 1
3,CC1(N)CCN(c2cnc(Sc3cccc(NC(=O)c4ccc(N5CCC(N6CC=C(c7ncc(C(=O)NCc8ccc9c(c8)CN(C8CCC(=O)NC8=O)C9=O)o7)CC6)CC5)c(F)c4)c3)cn2)CC1 (centres unmarked) [Compound 417],> 1
4,CC1(N)CCN(c2cnc(Sc3cccc(NC(=O)C4CCC(N5CCC(N6CC=C(c7ccc(C(=O)NCc8ccc9c(c8)CN(C8CCC(=O)NC8=O)C9=O)nc7)CC6)C(F)C5)CC4)c3)cn2)CC1 (centres unmarked) [Compound 420],< 0.1
5,CC1(N)CCN(c2cnc(Sc3cccc(NC(=O)c4ccc(-c5ccc(N6CCC(C7=CCC(C(=O)NCc8ccc9c(c8)CN(C8CCC(=O)NC8=O)C9=O)CC7)CC6)cc5)cc4)c3)cn2)CC1 (centres unmarked) [Compound 423],> 1
6,COC(=O)NC1(C)CCN(c2cnc(Sc3cccc(NC(=O)c4ccc(N5CCC(N6CC=C(c7ccc(C(=O)NCc8ccc9c(c8)CN(C8CCC(=O)NC8=O)C9=O)nc7)CC6)CC5)c(F)c4)c3)cn2)CC1 (centres unmarked) [Compound 424],> 1
7,CC(=O)NC1(C)CCN(c2cnc(Sc3cccc(NC(=O)c4ccc(N5CCC(N6CC=C(c7ccc(C(=O)NCc8ccc9c(c8)CN(C8CCC(=O)NC8=O)C9=O)nc7)CC6)CC5)c(F)c4)c3)cn2)CC1 (centres unmarked) [Compound 425],> 1
8,CC1(N)CCN(c2cnc(Sc3cccc(NC(=O)c4ccc(N5CCC(N6C=C(c7ncc(C(=O)NCc8ccc9c(c8)CN(C8CCC(=O)NC8=O)C9=O)o7)CC6)CC5)c(F)c4)c3)cn2)CC1 (centres unmarked) [Compound 426],> 1
9,C[C@H](N)C(=O)N[C@@H](Cc1ccccc1)C(=O)NC1(C)CCN(c2cnc(Sc3cccc(NC(=O)c4ccc(N5CCC(N6CC=C(c7ccc(C(=O)NCc8ccc9c(c8)CN(C8CCC(=O)NC8=O)C9=O)nc7)CC6)CC5)cc4)c3)cn2)CC1 (some centres unmarked) [Compound 427],> 1
10,CC1(N)CCN(c2cnc(Sc3cccc(NC(=O)c4ccc(N5CCC(N6CC=C(c7cnc(C(=O)NCc8ccc9c(c8)CN(C8CCC(=O)NC8=O)C9=O)c(F)c7)CC6)CC5)nc4)c3)cn2)CC1 (centres unmarked) [Compound 428],0.1 to 1
11,CC1(N)CCN(c2cnc(Sc3cccc(NC(=O)c4cnc(N5CCC(N6CC=C(c7ccc(C(=O)NCc8ccc9c(c8)CN(C8CCC(=O)NC8=O)C9=O)nn7)CC6)CC5)cn4)c3)cn2)CC1 (centres unmarked) [Compound 429],0.1 to 1
12,CC1(N)CCN(c2cnc(Sc3cccc(NC(=O)c4cnc(N5CCC(N6CC=C(c7ccc(C(=O)NCc8ccc9c(c8)CN(C8CCC(=O)NC8=O)C9=O)nc7)CC6)CC5)cn4)c3)cn2)CC1 (centres unmarked) [Compound 430],0.1 to 1
13,CC1(N)CCN(c2cnc(Sc3cccc(NC(=O)c4ccc(N5CCC(N6CC=C(c7cnc(C(=O)NCc8ccc9c(c8)CN(C8CCC(=O)NC8=O)C9=O)c(Cl)c7)CC6)CC5)nc4)c3)cn2)CC1 (centres unmarked) [Compound 431],0.1 to 1
14,CC1(N)CCN(c2cnc(Sc3cccc(NC(=O)c4ccc(C5=CCC(N6CC=C(c7ccc(C(=O)NCc8ccc9c(c8)CN(C8CCC(=O)NC8=O)C9=O)nc7)CC6)CC5)nc4)c3)cn2)CC1 (centres unmarked) [Compound 432],> 1
15,COCC1(N)CCN(c2cnc(Sc3cccc(NC(=O)c4ccc(N5CCC(N6CC=C(c7ccc(C(=O)NCc8ccc9c(c8)CN(C8CCC(=O)NC8=O)C9=O)nn7)CC6)CC5)cc4)c3)cn2)CC1 (centres unmarked) [Compound 433],> 1
16,COCC1(N)CCN(c2cnc(Sc3cccc(NC(=O)c4ccc(N5CCC(N6CC=C(c7ccc(C(=O)NCc8ccc9c(c8)CN(C8CCC(=O)NC8=O)C9=O)nc7)CC6)CC5)cc4)c3)cn2)CC1 (centres unmarked) [Compound 434],< 0.1
17,CC1(N)CCN(c2cnc(Sc3cccc(NC(=O)c4ccc(N5CCC(N6CCN(c7ccc(C(=O)NCc8ccc9c(c8)CN(C8CCC(=O)NC8=O)C9=O)nc7)CC6)CC5)nc4)c3)cn2)CC1 (centres unmarked) [Compound 436],0.1 to 1
18,CC1(N)CCN(c2cnc(Sc3cccc(NC(=O)c4ccc(N5CCC(N6CCN(c7ccc(C(=O)NCc8ccc9c(c8)CN(C8CCC(=O)NC8=O)C9=O)nn7)CC6)CC5)nc4)c3)cn2)CC1 (centres unmarked) [Compound 437],< 0.1

row,SMILES,DC50 [µM]
1,Cc1cc(N2CCC(N3CC=C(c4cnc(C(=O)NCc5ccc6c(c5)CN(C5CCC(=O)NC5=O)C6=O)c(F)c4)CC3)CC2)ccc1C(=O)Nc1cccc(Sc2cnc(N3CCC(C)(N)CC3)cn2)c1 (centres unmarked) [Compound 438],< 0.1
2,Cc1cc(C(=O)Nc2cccc(Sc3cnc(N4CCC(C)(N)CC4)cn3)c2)ccc1N1CCC(N2CC=C(c3cnc(C(=O)NCc4ccc5c(c4)CN(C4CCC(=O)NC4=O)C5=O)c(Cl)c3)CC2)CC1 (centres unmarked) [Compound 440],> 1
3,Cc1cc(C(=O)Nc2cccc(Sc3cnc(N4CCC(C)(N)CC4)cn3)c2)ccc1N1CCC(N2CC=C(c3ccc(C(=O)NCc4ccc5c(c4)CN(C4CCC(=O)NC4=O)C5=O)nc3Cl)CC2)CC1 (centres unmarked) [Compound 441],> 1
4,Cc1cc(N2CCC(N3CC=C(c4ccc(C(=O)NCc5ccc6c(c5)CN(C5CCC(=O)NC5=O)C6=O)nc4Cl)CC3)CC2)ccc1C(=O)Nc1cccc(Sc2cnc(N3CCC(C)(N)CC3)cn2)c1 (centres unmarked) [Compound 444],< 0.1
5,CC1(N)CCN(c2cnc(Sc3cccc(NC(=O)c4ccc(N5CCC(N6CCN(c7ccc(C(=O)NCc8ccc9c(c8)CN(C8CCC(=O)NC8=O)C9=O)nn7)CC6)CC5)cn4)c3)cn2)CC1 (centres unmarked) [Compound 447],> 1
6,CC1(N)CCN(c2cnc(Sc3cccc(NC(=O)c4ncc(N5CCC(N6CCN(c7ccc(C(=O)NCc8ccc9c(c8)CN(C8CCC(=O)NC8=O)C9=O)nn7)CC6)CC5)cn4)c3)cn2)CC1 (centres unmarked) [Compound 449],< 0.1
7,CC1(N)CCN(c2cnc(Sc3cccc(NC(=O)c4ccc(N5CCC(N6CCN(c7ccc(C(=O)NCc8ccc9c(c8)CN(C8CCC(=O)NC8=O)C9=O)nc7)CC6)CC5)nn4)c3)cn2)CC1 (centres unmarked) [Compound 450],< 0.1
8,Cc1cc(C(=O)Nc2cccc(Sc3cnc(N4CCC(C)(N)CC4)cn3)c2)ccc1N1CCC(N2CC=C(c3cnc(C(=O)NCc4ccc5c(c4)CN(C4CCC(=O)NC4=O)C5=O)cc3Cl)CC2)CC1 (centres unmarked) [Compound 452],< 0.1
9,Cc1cc(C(=O)Nc2cccc(Sc3cnc(N4CCC(C)(N)CC4)cn3)c2)ccc1N1CCC(N2CC=C(c3ccc(C(=O)NCc4ccc5c(c4)CN(C4CCC(=O)NC4=O)C5=O)cc3)CC2)CC1 (centres unmarked) [Compound 453],0.1 to 1
10,Cc1cc(N2CCC(N3CC=C(c4ccc(C(=O)NCc5ccc6c(c5)CN(C5CCC(=O)NC5=O)C6=O)cc4)CC3)CC2)ccc1C(=O)Nc1cccc(Sc2cnc(N3CCC(C)(N)CC3)cn2)c1 (centres unmarked) [Compound 454],0.1 to 1
11,Cc1cc(C(=O)NCc2ccc3c(c2)CN(C2CCC(=O)NC2=O)C3=O)ncc1C1=CCN(C2CCN(c3ccc(C(=O)Nc4cccc(Sc5cnc(N6CCC(C)(N)CC6)cn5)c4)cc3C)CC2)CC1 (centres unmarked) [Compound 456],0.1 to 1
12,Cc1cc(C(=O)NCc2ccc3c(c2)CN(C2CCC(=O)NC2=O)C3=O)ncc1C1=CCN(C2CCN(c3ccc(C(=O)Nc4cccc(Sc5cnc(N6CCC7(CC6)CO[C@@H](C)[C@H]7N)cn5)c4)cc3F)CC2)CC1 (some centres unmarked) [Compound 458],> 1
13,C[C@@H]1OCC2(CCN(c3cnc(Sc4cccc(NC(=O)c5ccc(N6CCC(N7CC=C(c8ccc(C(=O)NCc9ccc%10c(c9)CN(C9CCC(=O)NC9=O)C%10=O)cc8Cl)CC7)CC6)c(F)c5)c4)cn3)CC2)[C@@H]1N (some centres unmarked) [Compound 459],< 0.1
14,C[C@@H]1OCC2(CCN(c3cnc(Sc4cccc(NC(=O)c5ccc(N6CCC(N7CC=C(c8cnc(C(=O)NCc9ccc%10c(c9)CN(C9CCC(=O)NC9=O)C%10=O)cc8Cl)CC7)CC6)c(F)c5)c4)cn3)CC2)[C@@H]1N (some centres unmarked) [Compound 460],< 0.1
15,"Cc1nc(C(=O)NCc2ccc3c(c2)CN(C2CCC(=O)NC2=O)C3=O)ccc1C1=CCN(C2CCN(c3ccc(C(=O)Nc4cccc(Sc5cnc(N6CCC7(CC6)CO[C@@H](C)[C@H]7N)cn5)c4)cc3F)CC2)CC1 (stereo partly drawn) [Compound 461, N-{[2-(2,6-oxohexahydropyridin-3-yl)-1-oxo-2,3-dihydro-1H-isoindol-5-yl]methyl}-5-(1-{1-[2-fluoro-4-({[3-({5-[(3S,4S)-4-amino-3-methyl-8-aza-2-oxaspiro[4.5]decan-8-yl]pyrazin-2-yl}thio)phenyl]amino}carbonyl)phenyl]hexahydropyridine-4-yl}-1,2,3,6-tetrahydropyridin-4-yl)-6-methylpyridine-2-formamide hydrochloride]",< 0.1
16,Cc1cc(C2=CCN(C3CCN(c4ccc(C(=O)Nc5cccc(Sc6cnc(N7CCC8(CC7)CO[C@@H](C)[C@H]8N)cn6)c5)cc4F)CC3)CC2)cnc1C(=O)NCc1ccc2c(c1)CN(C1CCC(=O)NC1=O)C2=O (some centres unmarked) [Compound 462],> 1
17,C[C@@H]1OCC2(CCN(c3cnc(Sc4cccc(NC(=O)c5ccc(N6CCC(N7CC=C(c8ccc(C(=O)NCc9ccc%10c(c9)CN(C9CCC(=O)NC9=O)C%10=O)nc8Cl)CC7)CC6)c(F)c5)c4)cn3)CC2)[C@@H]1N (some centres unmarked) [Compound 463],> 1
